Assay [1] deals with T1, MvMak (Mycolicibacterium austroafricanum, UniProt A1TH50).
T1 construct: gene mak; recombinant, produced as previously described
The experiment in a line: ADP-Glo kinase assay, relative activity. The assay is classed as biochemical. Particulars: 5 mM sugar, 1 mM ATP, 2 μM enzyme, room temperature, 5 min. A general note: ADP-Glo first removes unused ATP, then detects ADP through luciferase.

In assay [2] the target is T2, SjGlcNK (Streptacidiphilus jiangxiensis, UniProt A0A1H7TQR5).
T2 construct: gene SAMN05414137_114149; recombinant, E. coli BL21(DE3), nickel NTA and size exclusion; monomer in solution; C-lobe residues 194-438
T2 sequence (A0A1H7TQR5 1-438): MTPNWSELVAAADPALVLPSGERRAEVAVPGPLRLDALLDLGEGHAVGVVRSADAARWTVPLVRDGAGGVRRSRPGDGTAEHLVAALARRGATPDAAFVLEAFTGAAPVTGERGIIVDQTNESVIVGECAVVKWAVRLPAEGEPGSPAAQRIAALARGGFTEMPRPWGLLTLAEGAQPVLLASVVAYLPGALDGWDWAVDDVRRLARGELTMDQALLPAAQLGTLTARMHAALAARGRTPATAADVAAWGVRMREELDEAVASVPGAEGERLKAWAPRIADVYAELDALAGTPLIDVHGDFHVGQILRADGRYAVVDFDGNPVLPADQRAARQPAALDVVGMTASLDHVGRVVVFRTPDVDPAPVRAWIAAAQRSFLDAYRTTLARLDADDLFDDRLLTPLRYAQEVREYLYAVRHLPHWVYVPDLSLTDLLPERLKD
In words: kinase kinetics, Michaelis-Menten fit. In kind it is biochemical. The following applies: co-substrate ATP.

Bounds are passed on as bounds.

We go through two molecules from paper PMC6520443, “Molecular Fingerprints for a Novel Enzyme Family in Actinobacteria with Glucosamine Kinase Activity” (mBio, 2019).

T1 sequence (A1TH50 whole entry): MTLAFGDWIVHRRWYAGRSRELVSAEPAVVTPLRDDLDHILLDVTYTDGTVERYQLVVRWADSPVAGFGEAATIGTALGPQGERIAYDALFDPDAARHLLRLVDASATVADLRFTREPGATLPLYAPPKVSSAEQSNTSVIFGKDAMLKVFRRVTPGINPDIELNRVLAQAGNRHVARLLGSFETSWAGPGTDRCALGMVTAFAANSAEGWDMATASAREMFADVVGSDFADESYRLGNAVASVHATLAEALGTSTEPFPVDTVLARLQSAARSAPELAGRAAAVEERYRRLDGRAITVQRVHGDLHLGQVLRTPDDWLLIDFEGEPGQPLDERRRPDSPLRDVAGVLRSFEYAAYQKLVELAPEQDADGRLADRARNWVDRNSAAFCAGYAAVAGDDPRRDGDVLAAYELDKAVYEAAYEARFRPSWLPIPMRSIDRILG

With `OC[C@H]1O[C@H](O[C@H]2[C@H](O)[C@@H](O)C(O)O[C@@H]2CO)[C@H](O)[C@@H](O)[C@@H]1O` (some centres unmarked) [maltose], the “ADP-Glo kinase assay, relative activity” value in assay [1] was “MvMak uses exclusively maltose as the substrate acceptor”.

Broadly, the Km is the concentration of substrate that gives half-maximal velocity. Turning to `OC[C@H]1OC(O)[C@H](O)[C@@H](O)[C@@H]1O` (some centres unmarked) [glucose], in assay [2], the Km is more than 100 mM.
